Literature values as cited in patent US5639785A, “Methods for the treatment of baldness and gray hair using isoflavonoid derivatives” (priority 1995, dated 1997).
Where two headings read alike, the source gives them in different places.

What was measured:
[1] = test system: alcohol dehydrogenase (ADH) class I isozymes
[2] = biological target: T1, aldehyde dehydrogenase (ALDH) II and II of human mitochondria (Homo sapiens, UniProt P05091)
T1 sequence (P05091 18-517): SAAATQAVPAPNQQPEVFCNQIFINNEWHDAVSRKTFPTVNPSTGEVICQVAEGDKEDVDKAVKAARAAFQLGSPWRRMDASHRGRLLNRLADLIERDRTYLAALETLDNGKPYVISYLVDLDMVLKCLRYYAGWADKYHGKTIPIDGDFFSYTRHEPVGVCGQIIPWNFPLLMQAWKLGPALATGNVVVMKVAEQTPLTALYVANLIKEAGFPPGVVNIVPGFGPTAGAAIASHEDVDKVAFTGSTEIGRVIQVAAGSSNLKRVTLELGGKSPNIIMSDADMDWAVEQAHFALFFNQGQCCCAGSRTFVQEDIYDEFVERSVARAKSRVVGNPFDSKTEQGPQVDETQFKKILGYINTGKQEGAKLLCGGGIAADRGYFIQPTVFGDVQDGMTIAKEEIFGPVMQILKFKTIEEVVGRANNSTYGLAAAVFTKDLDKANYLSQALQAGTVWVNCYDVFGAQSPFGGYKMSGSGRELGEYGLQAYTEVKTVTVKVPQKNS

[3] = biological target: r1 r1 ADH isozyme (alcohol dehydrogenase class I) (Homo sapiens, UniProt P00326); conditions: competitive with respect to ethanol, uncompetitive with respect to NAD
Chain of r1 r1 ADH isozyme (alcohol dehydrogenase class I) (P00326 2-375 limits assumed): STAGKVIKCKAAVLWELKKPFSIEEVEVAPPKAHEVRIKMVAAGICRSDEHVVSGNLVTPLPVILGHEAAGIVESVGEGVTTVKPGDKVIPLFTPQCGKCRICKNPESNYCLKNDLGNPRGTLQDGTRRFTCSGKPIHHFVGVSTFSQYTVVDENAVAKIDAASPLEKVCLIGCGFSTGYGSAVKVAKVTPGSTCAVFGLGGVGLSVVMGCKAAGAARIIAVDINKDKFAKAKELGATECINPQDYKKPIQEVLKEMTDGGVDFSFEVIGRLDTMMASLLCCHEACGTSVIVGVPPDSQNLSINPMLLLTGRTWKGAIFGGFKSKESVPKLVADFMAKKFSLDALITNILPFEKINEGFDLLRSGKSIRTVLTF

[4] = biological target: r2 r2 ADH isozyme (alcohol dehydrogenase class I) (Homo sapiens, UniProt P00326, I350V/R272Q); conditions: competitive with respect to ethanol, uncompetitive with respect to NAD
Chain of r2 r2 ADH isozyme (alcohol dehydrogenase class I) (P00326 2-375 R272Q/I350V limits assumed): as the sequence (P00326 2-375 limits assumed) above, with R271Q, I349V counted along it

[5] = test system: HL60 human leukemia cells
[6] = test system: LNCaP human prostate cancer cell line
[7] = test system: Du-145 human prostate cancer cell line
patients with hair loss = conditions: after four months of treatment

## O=c1c(-c2ccc(O)cc2)coc2cc(O[C@@H]3O[C@H](CO)[C@@H](O)[C@H](O)[C@H]3O)ccc12 [daidzin]
[1]
  inhibition of ADH: did not inhibit
[2]
  inhibition of ALDH: potent inhibitor
Syrian Golden hamsters; Syrian Golden hamsters
  effect on body weight, water or food intake: did not significantly affect
  free choice ethanol intake: suppressed

## O=c1c(-c2ccc(O)cc2)coc2cc(O)ccc12 [daidzein, 7-hydroxy-3-(4-hydroxyphenyl)-4-H-1-benzopyranyl-4-one]
[3]
  Ki: ~1000 nM
[4]
  Ki: ~1000 nM
[1]
  inhibition of ADH: reversible inhibitors
[5]
  concentration that inhibited the growth of HL60 cells: greater than 10 μg/ml
[6]
  inhibition of serum and epidermal growth factor-stimulated growth: not
[7]
  inhibition of serum and epidermal growth factor-stimulated growth: not
Syrian Golden hamsters; Syrian Golden hamsters
  free choice ethanol intake: suppressed
Syrian Golden hamsters; hamster, in vivo
  effect on body weight, water or food intake: did not significantly affect

## Nc1cc(N2CCCCC2)nc(N)[n+]1[O-] [Minoxidil]
Patients with hair loss
  patients who achieve minimal regrowth of hair: approximately 25%

## O=c1c(-c2ccc(O)cc2)coc2cc(O)cc(O)c12 [genistein]
[1]
  inhibition of ADH: reversible inhibitors
[6]
  inhibition of serum and epidermal growth factor-stimulated growth: inhibited
[7]
  inhibition of serum and epidermal growth factor-stimulated growth: inhibited

## COc1ccc(-c2coc3cc(O)cc(O)c3c2=O)cc1 [biochanin A]
[6]
  inhibition of serum and epidermal growth factor-stimulated growth: inhibited
[7]
  inhibition of serum and epidermal growth factor-stimulated growth: inhibited
